Among the data in PubChem BioAssay (NCI) are GI50 and TGI values, retold here.

Molecules are shown by their SMILES.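 The compound was tested at five concentrations on cells cultured in 96-well plates, with a 48-hour exposure period. Abbreviation: GI50, concentration required for 50% inhibition of growth. At the TGI there is no net growth.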

Among the test systems are CCRF-CEM leukemia; COLO 205 colon; HCC-2998 colon; HCT-15 colon; K-562 leukemia; NCI/ADR-RES ovarian; RPMI-8226 leukemia; SNB-19 CNS; TK-10 renal; UACC-62 melanoma.
Holding throughout (test): inhibition of tumour cell growth, NCI panel, 48 h

Turning to `C[C@]12CC[C@H]3[C@@H](CCC4=CC(=O)CC[C@@H]43)[C@@H]1CC[C@@H]2OC(=O)CCc1ccccc1`, the GI50 in the test with CCRF-CEM leukemia was 17.2 µM; with COLO 205 colon, 16.3 µM; in the test with HCC-2998 colon, 29.7 µM; in the test with HCT-15 colon, 24.6 µM; with K-562 leukemia, 18.8 µM; with NCI/ADR-RES ovarian, 19.1 µM. Further, the GI50 in the test with RPMI-8226 leukemia was 14.6 µM; in the test on SNB-19 CNS, 18.4 µM; in the test on TK-10 renal it was 14.5 µM; in the test with UACC-62 melanoma, 9.64 µM. For the same molecule, the TGI in the test with CCRF-CEM leukemia was 43.5 µM; with COLO 205 colon, 40.1 µM; in the test with HCC-2998 colon it was greater than 78.2 µM; in the test on HCT-15 colon it was greater than 89.7 µM; with K-562 leukemia it was greater than 69 µM; in the test on NCI/ADR-RES ovarian it was 40.9 µM. Moreover, the TGI with RPMI-8226 leukemia stood at 47 µM; in the test with SNB-19 CNS, 37.5 µM; in the test with TK-10 renal it was 33.7 µM; in the test on UACC-62 melanoma, 35.7 µM.
Consider `N=C(N)c1ccc(N2CCCN(c3ccc(C(=N)N)cc3)CC2)cc1`, for which the GI50 is greater than 100 µM with CCRF-CEM leukemia; 31.8 µM in the test with COLO 205 colon; greater than 100 µM with HCC-2998 colon; 65.3 µM in the test on HCT-15 colon; 89.6 µM with K-562 leukemia; greater than 100 µM in the test on NCI/ADR-RES ovarian. For the same molecule, the GI50 with RPMI-8226 leukemia is greater than 100 µM; in the test on SNB-19 CNS it was 48.7 µM; in the test with TK-10 renal, 58.2 µM; in the test with UACC-62 melanoma, 89 µM. The TGI with CCRF-CEM leukemia, with COLO 205 colon, in the test with HCC-2998 colon, in the test with HCT-15 colon, with K-562 leukemia and in the test with NCI/ADR-RES ovarian was greater than 100 µM throughout. In addition, the TGI with RPMI-8226 leukemia, in the test with SNB-19 CNS, in the test with TK-10 renal and in the test on UACC-62 melanoma was greater than 100 µM throughout.
For the molecule `C=CC(=O)Nc1cccc(C)c1Nc1cc(-c2cccnc2Cc2c(C)c(OC)cc(OC)c2C)ncn1`, the GI50 with CCRF-CEM leukemia was 8.26 µM; in the test on COLO 205 colon, 13.1 µM; in the test on HCC-2998 colon it was 16 µM; with HCT-15 colon, 14.4 µM; with K-562 leukemia, 7.55 µM; in the test with NCI/ADR-RES ovarian it was 9.9 µM. In addition, the GI50 with RPMI-8226 leukemia is 3.37 µM; in the test with SNB-19 CNS, 7.04 µM; in the test with TK-10 renal it was 10.8 µM; in the test on UACC-62 melanoma, 10.3 µM. Further, the TGI was greater than 100 µM in the test on CCRF-CEM leukemia; greater than 100 µM with COLO 205 colon; 30.6 µM with HCC-2998 colon; 47.2 µM with HCT-15 colon; greater than 100 µM with K-562 leukemia; 38 µM in the test with NCI/ADR-RES ovarian. Besides, the TGI in the test on RPMI-8226 leukemia was found to be 24.9 µM; in the test on SNB-19 CNS, 43.1 µM; with TK-10 renal, 99.4 µM; in the test on UACC-62 melanoma, 25.9 µM.
Consider `CC(CN1CCN(CCOCCO)CC1)CN1c2ccccc2Sc2ccc(Cl)cc21` (stereo not given), for which the GI50 with CCRF-CEM leukemia was 2.68 µM; with COLO 205 colon it was 1.69 µM; with HCC-2998 colon it was 1.91 µM; in the test on HCT-15 colon, 1.85 µM; in the test with K-562 leukemia it was 1.96 µM; in the test with NCI/ADR-RES ovarian, 4.39 µM. In addition, the GI50 was 2.19 µM in the test with RPMI-8226 leukemia, 8.14 µM in the test with SNB-19 CNS, 2.31 µM in the test on TK-10 renal and 1.75 µM with UACC-62 melanoma. Besides, the TGI came to 8.74 µM in the test with CCRF-CEM leukemia; 3.18 µM in the test with COLO 205 colon; 3.51 µM in the test on HCC-2998 colon; 3.76 µM in the test with HCT-15 colon; 4.18 µM in the test on K-562 leukemia; 18.1 µM with NCI/ADR-RES ovarian. Moreover, the TGI in the test with RPMI-8226 leukemia was 5.54 µM; with SNB-19 CNS, 21.8 µM; in the test with TK-10 renal it was 6.45 µM; in the test on UACC-62 melanoma, 3.44 µM.
For the molecule `COC(=O)Cn1c2c(c3c(O)cccc31)C(=O)c1ccccc1-2`, the GI50 with CCRF-CEM leukemia, in the test on COLO 205 colon, in the test with HCC-2998 colon, in the test with HCT-15 colon, in the test with K-562 leukemia and in the test with NCI/ADR-RES ovarian was greater than 100 µM throughout. The GI50 in the test with RPMI-8226 leukemia was greater than 100 µM; in the test with SNB-19 CNS, greater than 100 µM; with TK-10 renal, 45.4 µM; with UACC-62 melanoma, greater than 100 µM. Also, the TGI in the test on CCRF-CEM leukemia, in the test on COLO 205 colon, with HCC-2998 colon, with HCT-15 colon, in the test on K-562 leukemia and in the test with NCI/ADR-RES ovarian was greater than 100 µM in each case. Also, the TGI with RPMI-8226 leukemia, in the test with SNB-19 CNS, in the test with TK-10 renal and in the test on UACC-62 melanoma was greater than 100 µM each time.
For the molecule `N#Cc1c(N/N=C/c2c(Cl)cccc2Cl)nc(N)nc1N1CCOCC1`, the GI50 was 6.27 µM in the test with CCRF-CEM leukemia; 14.9 µM in the test with COLO 205 colon; 3.96 µM in the test with HCC-2998 colon; 4.52 µM in the test with HCT-15 colon; 2.34 µM in the test with K-562 leukemia; 9.98 µM with NCI/ADR-RES ovarian. In addition, the GI50 with RPMI-8226 leukemia is 3.86 µM; in the test with SNB-19 CNS it was 34.5 µM; in the test on TK-10 renal, 20.8 µM; with UACC-62 melanoma, 3.7 µM. Also, the TGI in the test on CCRF-CEM leukemia is greater than 100 µM; in the test on COLO 205 colon it was greater than 100 µM; in the test with HCC-2998 colon it was 12.8 µM; in the test with HCT-15 colon it was 57.4 µM; in the test on K-562 leukemia it was 11.3 µM; with NCI/ADR-RES ovarian, 64.6 µM. Also, the TGI in the test with RPMI-8226 leukemia is 26.2 µM; with SNB-19 CNS, greater than 100 µM; in the test on TK-10 renal, 92 µM; in the test with UACC-62 melanoma it was 31.4 µM.
`COc1cccc(C=Nc2cc(C)ccn2)c1O.COc1cccc(C=Nc2cc(C)ccn2)c1O.[Cu]`: the GI50 in the test on CCRF-CEM leukemia is 6.01 µM; in the test on COLO 205 colon, 18.9 µM; in the test on HCC-2998 colon, 16.2 µM; in the test on HCT-15 colon, 11.9 µM; in the test on K-562 leukemia, 18.2 µM; in the test with NCI/ADR-RES ovarian it was 19.1 µM. Moreover, the GI50 is 17.6 µM in the test with RPMI-8226 leukemia, 19.7 µM in the test with SNB-19 CNS, 19.8 µM in the test with TK-10 renal and 15.8 µM in the test with UACC-62 melanoma. In addition, the TGI in the test on CCRF-CEM leukemia was 32.1 µM; in the test on COLO 205 colon, 42.8 µM; in the test on HCC-2998 colon it was 37.9 µM; with HCT-15 colon it was 36 µM; with K-562 leukemia, 68.1 µM; in the test on NCI/ADR-RES ovarian it was 68.3 µM. Besides, the TGI in the test on RPMI-8226 leukemia was greater than 100 µM; with SNB-19 CNS, 60.5 µM; in the test on TK-10 renal, 42 µM; in the test on UACC-62 melanoma, 31.9 µM.
Regarding `Cc1ccc(NC(=O)/C=C/c2ccccc2)c(C(N)=O)c1`, the GI50 was 2.33 µM in the test with CCRF-CEM leukemia; 1.68 µM with COLO 205 colon; 5.38 µM in the test on HCC-2998 colon; 2.43 µM in the test on HCT-15 colon; 1.06 µM in the test on K-562 leukemia; 2.54 µM in the test on NCI/ADR-RES ovarian. For the same molecule, the GI50 with RPMI-8226 leukemia was 2.89 µM; in the test on SNB-19 CNS, 5.81 µM; with TK-10 renal it was 17.1 µM; with UACC-62 melanoma, 3.44 µM. The TGI with CCRF-CEM leukemia was greater than 29.2 µM; in the test with COLO 205 colon, 5.93 µM; in the test with HCC-2998 colon, 42.5 µM; with HCT-15 colon it was greater than 100 µM; in the test with K-562 leukemia, greater than 100 µM; in the test on NCI/ADR-RES ovarian, 18.2 µM. Further, the TGI in the test with RPMI-8226 leukemia was greater than 100 µM; in the test on SNB-19 CNS it was greater than 100 µM; in the test with TK-10 renal, greater than 100 µM; in the test with UACC-62 melanoma, greater than 80.8 µM.
As for `COc1ccc(-c2cc(-c3ccccc3)nc(SCCCC(=O)NO)n2)cc1`, the GI50 in the test with CCRF-CEM leukemia is 0.387 µM; with COLO 205 colon it was 2.08 µM; with HCC-2998 colon, 1.7 µM; in the test with HCT-15 colon, 0.387 µM; with K-562 leukemia it was 0.762 µM; in the test on NCI/ADR-RES ovarian, 0.267 µM. In addition, the GI50 with RPMI-8226 leukemia was 0.454 µM; in the test on SNB-19 CNS, 2.19 µM; with TK-10 renal it was 0.369 µM; with UACC-62 melanoma, 0.756 µM. Further, the TGI in the test on CCRF-CEM leukemia was 13.5 µM; with COLO 205 colon it was 6.94 µM; in the test on HCC-2998 colon it was 3.81 µM; with HCT-15 colon it was 3.34 µM; in the test with K-562 leukemia, 18 µM; in the test with NCI/ADR-RES ovarian, 1.6 µM. The TGI in the test on RPMI-8226 leukemia is greater than 22.9 µM; in the test on SNB-19 CNS it was 9.27 µM; with TK-10 renal it was 9.63 µM; with UACC-62 melanoma, 2.53 µM.
As to `CCCCNCC(=O)O[C@]1(CC)C(=O)OCc2c1cc1n(c2=O)Cc2cc3ccccc3nc2-1`, the TGI was 0.723 µM with CCRF-CEM leukemia; 17.5 µM with COLO 205 colon; 8.76 µM with HCC-2998 colon; greater than 100 µM in the test with HCT-15 colon; greater than 48.7 µM in the test with K-562 leukemia; 2.03 µM with NCI/ADR-RES ovarian. For the same molecule, the TGI is 5.77 µM with RPMI-8226 leukemia, greater than 61.1 µM in the test on SNB-19 CNS, greater than 96.5 µM with TK-10 renal and 0.925 µM in the test on UACC-62 melanoma.
